Measurements: patent US20070248680A1, “Particles for Inactivating Toxins” (Board of Regents, The University of Texas System, priority 2005, published 2007)
Entries after “also recorded” stand apart in the source; their conditions may differ.

What was measured:
[1] = Persistence of FITC-BSA tagged particles in blood after intravenous introduction (fluorometry); type: in vivo; details: Balb/C mice, about 5.0 micrometer particles
Procedure: One feature of the present invention is that a particle preparation of the present invention is capable of remaining in the host for a length of time, longer than proteins, antibodies, vaccines, or antimicrobials are known to last in a mammalian host. […] Particle were tagged by conjugating with FITC-labeled bovine serum albumin (BSA) protein. […] The amount of BSA present in each sample was assessed by fluorometry. The tagged particles in FIG. 5A were FITC-BSA conjugated to NIPA particles of about 5.0 micrometers (typical diameter). […] In addition, greater than 20% of the BSA-NIPA particles were still present in the blood after two weeks.

BSA antibodies = assay: Protein adsorption from BSA antisera onto particles, SDS-PAGE of eluted proteins; type: binding, Balb/C mice; details: serum of BSA-immunized mice, about 2 hours incubation, about 5 micrometer particles
Procedure: Another feature is that a tagged particle of the present invention may specifically recognize proteins or other host components of interest and as desired. For example, tagged particles were made to recover or eliminate BSA antibodies from immunized animals. First, Balb/C mice were immunized with bovine serum albumin (BSA) protein for four weeks to trigger BSA antibody production. Two weeks later, mice were sacrificed and their serum was recovered for analyses. […] After incubation for at least about 2 hours, particles were recovered by centrifugation. From a portion of each sample of recovered particles, proteins were eluted. Particles and eluted proteins were analyzed by SDS-PAGE gel electrophoresis to identify proteins that had adsorbed to the particles.
In FIG. 6, lane 1 is diluted mouse sera in PBS at concentration of 1 mg/mL; lanes 2, 5 and 7 depict proteins eluted from NIPA microparticles preincubated with antisera from three different mice; lanes 3, 4 and 6 depict proteins eluted from NIPA-BSA microparticles preincubated with antisera from three different mice. Lanes 2 and 3 are samples from a first mouse, lanes 4 and 5 are samples from a second mouse, and lanes 6 and 7 are samples from a third mouse.
In another example depicting the specific recognition of tagged particles, a similar immunization strategy was used. […] Eluted proteins were analyzed using SDS-PAGE gel electrophoresis. […]

BSA antibody = assay: Removal of free BSA antibody from serum of BSA-immunized mice (ELISA); type: in vivo, Balb/C mice; details: for time to removal of circulating BSA antibodies from serum / effect on free and circulating BSA antibody in serum: tail vein injection; for time to removal of circulating BSA antibodies from serum: FIG. 8B; for effect on free and circulating BSA antibody in serum: NIPA about 5 micrometers, PLLA about 10 micrometers, HA about 250 nanometers
Description: Another feature of the present invention is that selective tagging of particles of the present invention provides for the removal of select and specific unwanted products or toxins (e.g., unwanted proteins or antibodies) from a host. […] Following injection, mice (at least five mice per group) were sacrificed beginning on day one and continued to day 21. Serum samples from each mouse were recovered via retro-orbital blood collection. Sera was then used to measure the amount of free BSA antibody in the blood by standard enzyme-linked immuno-sorbent assay. FIGS. 8A and 8B are representative examples of the efficacy of specifically tagged particles, in which tagged particles are capable of removing a specific antibody present in serum.

collagen antibody = assay: Removal of collagen antibodies from circulation of collagen-immunized mice; type: in vivo, Balb/C mice; details: week 7, one week after intravenous injection of about 2.0 mg particles/0.5 mL; about 100 nanometer NIPA
Procedure: In still another example, Balb/C mice were immunized with bovine skin collagen following a standard immunization procedure as is known to one of ordinary skill in the art. At one week following immunization, mice began to produce antibodies against collagen. At the end of week 6 as depicted by the arrow in FIGS. 9A and 9B, mice were injected intravenously (via the tail vein) with particles tagged with and without bovine Type I collagen. Intravenous doses were about 2.0 mg particles/0.5 mL. FIGS. 9A and 9B are representative examples showing the in vivo efficacy of specifically tagged particles and their ability to remove a particular unwanted antibodies from circulation after allowing the unwanted antibody concentration to accumulate for six weeks. […] Histologic analyses of tissue samples collected from some representative animals, including samples from the kidneys, lung, liver, brain, intestines, heart and spleen, were examined for particles. […] These animals were also able to degrade the particle preparation (predominantly in the liver) and eliminate by-products of the preparation via hydrolysis (data not shown).
In FIG. 9B, the conditions as described for FIG. 9A were repeated using particle preparations tagged comprising HPC particles of 1-5 micrometers (typical diameter) conjugated with collagen (HPC-collagen) or untagged particles (HPC) injected into mice.

## BSA-HPC: HPC particles (approximately 5.0 micrometers) conjugated to BSA
[1]
  particles still present in the blood after two weeks: greater than 20%

## BSA-NIPA: FITC-BSA conjugated to NIPA particles of about 5.0 micrometers typical diameter
[1]; FIG. 5A
  time remained in the circulation: at least 2 weeks
[1]
  particles still present in the blood after two weeks: greater than 20%
BSA antibodies; listed as BSA-NIPA microparticles
  proteins adsorbed to or recognized by particles: recognized a number of proteins, especially those representing immunoglobulin G
BSA antibodies; listed as NIPA-BSA microparticles
  proteins adsorbed to or recognized by particles: recognized more proteins
BSA antibody; tail vein injection at 6 weeks, about 5 micrometer particles, FIG. 8A
  free BSA antibodies in the serum: < 5%
BSA antibody
  time to removal of circulating BSA antibodies from serum: less than a week
  effect on free and circulating BSA antibody in serum: virtually complete by day 2

## HA-BSA: HA nanoparticles (approximately 250 nanometers) tagged with BSA
BSA antibody
  time to removal of circulating BSA antibodies from serum: less than a week

## NP-Collagen: NIPA particles (approximately 100 nanometers) conjugated with bovine Type I collagen
Collagen antibody
  reduction of collagen antibody concentration: greater than 75%

## PLLA-BSA: PLLA microparticles (approximately 10 micrometer) tagged with BSA
BSA antibody
  time to removal of circulating BSA antibodies from serum: less than a week

## bovine serum albumin [BSA, reference compound]
BSA antibody
  effect on free and circulating BSA antibody in serum: did little to effect; also recorded: none of the untagged particles (HA, NIPA, PLLA) or BSA alone (BSA) when injected into a host were able to significantly effect
